{
  "source": "patent US9546138B2",
  "about": "“Pyridone derivatives and uses thereof in the treatment of tuberculosis” (priority 2012, dated 2017)",
  "key": {"[1]": {"system": "Mtb H37Rv resistant mutant 529-5X-108-S1 (inhA D148G)", "assay_type": "cell-based, Mycobacterium tuberculosis"}, "[2]": {"system": "Mtb H37Rv resistant mutant 529-5X-108-B2 (inhA S94A)", "assay_type": "cell-based, Mycobacterium tuberculosis"}, "[3]": {"system": "Mtb H37Rv resistant mutant 529-5X-108-B4 (inhA G96V)", "assay_type": "cell-based, Mycobacterium tuberculosis"}, "[4]": {"system": "Mtb H37Rv resistant mutant 529-10X-108-B6", "assay_type": "cell-based, Mycobacterium tuberculosis"}, "[5]": {"system": "Mtb H37Rv resistant mutant 529-10X-107-B8 (inhA D148E)", "assay_type": "cell-based, Mycobacterium tuberculosis"}, "[6]": {"system": "BCG-529-108-10X-2 (InhA M161V)", "assay_type": "cell-based, M bovis BCG"}, "[7]": {"system": "BCG-916-108-25X-B1 (InhA M161I)", "assay_type": "cell-based, M bovis BCG"}, "[8]": {"system": "Mtb H37Rv resistant mutant 529-5X-108-S3 (inhA D148G)", "assay_type": "cell-based, Mycobacterium tuberculosis"}},
  "data": [
    {"smiles": "CCc1cc(C(N)=S)ccn1", "note": "[Ethionamide, reference compound]", "values": [
      {"measurement": "Compound MIC50", "setting": "[1]", "value": 1.53, "unit": "µM"},
      {"measurement": "Compound MIC50", "setting": "[2]", "value": 9.74, "unit": "µM"},
      {"measurement": "Compound MIC50", "setting": "[3]", "value": 1.32, "unit": "µM"},
      {"measurement": "Compound MIC50", "setting": "[4]", "value": 1.41, "unit": "µM"},
      {"measurement": "Compound MIC50", "setting": "[5]", "value": 1.91, "unit": "µM"},
      {"measurement": "Compound MIC50", "setting": "[6]", "value": ">60", "unit": "µM"},
      {"measurement": "Compound MIC50", "setting": "[7]", "value": ">60", "unit": "µM"}
    ]},
    {"smiles": "NNC(=O)c1ccncc1", "note": "[Isoniazid, isoniazid, reference compound]", "values": [
      {"measurement": "Compound MIC50", "setting": "[1]", "value": 0.15, "unit": "µM"},
      {"measurement": "Compound MIC50", "setting": "[2]", "value": 0.86, "unit": "µM"},
      {"measurement": "Compound MIC50", "setting": "[8]", "value": 0.15, "unit": "µM"},
      {"measurement": "Compound MIC50", "setting": "[3]", "value": 0.09, "unit": "µM"},
      {"measurement": "Compound MIC50", "setting": "[4]", "value": 0.11, "unit": "µM"},
      {"measurement": "Compound MIC50", "setting": "[5]", "value": 0.31, "unit": "µM"},
      {"measurement": "Compound MIC50", "setting": "[6]", "value": 1.27, "unit": "µM"},
      {"measurement": "Compound MIC50", "setting": "[7]", "value": 1.48, "unit": "µM"}
    ]},
    {"smiles": "O=c1[nH]c(CC2CCCCC2)cc(O)c1-c1ccccc1", "note": "[PD2, 6-(cyclohexylmethyl)-4-hydroxy-3-phenylpyridin-2(1H)-one]", "values": [
      {"measurement": "Compound MIC50", "setting": "[1]", "value": 1.46, "unit": "µM"},
      {"measurement": "Compound MIC50", "setting": "[2]", "value": 4.04, "unit": "µM"},
      {"measurement": "Compound MIC50", "setting": "[8]", "value": 1.73, "unit": "µM"},
      {"measurement": "Compound MIC50", "setting": "[3]", "value": 14.60, "unit": "µM"},
      {"measurement": "Compound MIC50", "setting": "[4]", "value": ">40", "unit": "µM"},
      {"measurement": "Compound MIC50", "setting": "[5]", "value": ">40", "unit": "µM"}
    ]},
    {"smiles": "CC1(C)CCC(Cc2cc(O)c(-c3ccccc3)c(=O)[nH]2)CC1", "note": "[PD10, 6-((4,4-dimethylcyclohexyl)methyl)-4-hydroxy-3-phenylpyridin-2(1H)-one]", "values": [
      {"measurement": "Compound MIC50", "setting": "[1]", "value": 0.29, "unit": "µM"},
      {"measurement": "Compound MIC50", "setting": "[2]", "value": 0.78, "unit": "µM"},
      {"measurement": "Compound MIC50", "setting": "[8]", "value": 0.38, "unit": "µM"},
      {"measurement": "Compound MIC50", "setting": "[3]", "value": ">5.0", "unit": "µM"},
      {"measurement": "Compound MIC50", "setting": "[4]", "value": ">5.0", "unit": "µM"},
      {"measurement": "Compound MIC50", "setting": "[5]", "value": ">5.0", "unit": "µM"},
      {"measurement": "Compound MIC50", "setting": "[6]", "value": 3.02, "unit": "µM"},
      {"measurement": "Compound MIC50", "setting": "[7]", "value": 3.2, "unit": "µM"}
    ]},
    {"smiles": "CC(C)Cc1cc(O)c(-c2ccccc2)c(=O)[nH]1", "note": "[PD12, 4-hydroxy-6-isobutyl-3-phenylpyridin-2(1H)-one]", "values": [
      {"measurement": "Compound MIC50", "setting": "[1]", "value": ">40", "unit": "µM"},
      {"measurement": "Compound MIC50", "setting": "[2]", "value": ">40", "unit": "µM"},
      {"measurement": "Compound MIC50", "setting": "[8]", "value": ">40", "unit": "µM"},
      {"measurement": "Compound MIC50", "setting": "[3]", "value": ">40", "unit": "µM"},
      {"measurement": "Compound MIC50", "setting": "[4]", "value": ">40", "unit": "µM"},
      {"measurement": "Compound MIC50", "setting": "[5]", "value": ">40", "unit": "µM"},
      {"measurement": "Compound MIC50", "setting": "[6]", "value": 27.88, "unit": "µM"},
      {"measurement": "Compound MIC50", "setting": "[7]", "value": 21.52, "unit": "µM"}
    ]}
  ]
}
